Results reported in US9469650B2, “Melampomagnolide B derivatives” (BOARD OF TRUSTEES OF THE UNIVERSITY OF ARKANSAS, priority 2013, dated 2016).

Assays:
SNB-75 = experiment: panel of 60 human tumor cell lines, growth inhibition (CNS Cancer); details: SNB-75
HCC-2998 = experiment: panel of 60 human tumor cell lines, growth inhibition (Colon Cancer); details: HCC-2998
A498 = experiment: panel of 60 human tumor cell lines, growth inhibition (Renal Cancer); details: A498
SNB-19 = experiment: panel of 60 human tumor cell lines, growth inhibition (CNS Cancer); details: SNB-19
HS 578T = experiment: panel of 60 human tumor cell lines, growth inhibition (Breast Cancer); details: HS 578T
MOLT-4 = experiment: panel of 60 human tumor cell lines, growth inhibition (Leukemia); details: MOLT-4
CAKI-1 = experiment: panel of 60 human tumor cell lines, growth inhibition (Renal Cancer); details: CAKI-1
MCF7 = experiment: panel of 60 human tumor cell lines, growth inhibition (Breast Cancer); details: MCF7
786-0 = experiment: panel of 60 human tumor cell lines, growth inhibition (Renal Cancer); details: 786-0
TK-10 = experiment: as above; details: TK-10
NCI/ADR-RES = experiment: panel of 60 human tumor cell lines, growth inhibition (Ovarian Cancer)
SW-620 = experiment: panel of 60 human tumor cell lines, growth inhibition (Colon Cancer); details: SW-620
SR = experiment: panel of 60 human tumor cell lines, growth inhibition (Leukemia)
SF-268 = experiment: panel of 60 human tumor cell lines, growth inhibition (CNS Cancer); details: SF-268
T-47D = experiment: panel of 60 human tumor cell lines, growth inhibition (Breast Cancer); details: T-47D
UO-31 = experiment: panel of 60 human tumor cell lines, growth inhibition (Renal Cancer); details: UO-31
MDA-MB-468 = experiment: panel of 60 human tumor cell lines, growth inhibition (Breast Cancer); details: MDA-MB-468
IGROV1 = experiment: panel of 60 human tumor cell lines, growth inhibition (Ovarian Cancer); details: IGROVI
HCT-116 = experiment: panel of 60 human tumor cell lines, growth inhibition (Colon Cancer); details: HCT-116

C=C1C(=O)O[C@H]2[C@H]1CC/C(COC(=O)NCCO)=C\CC[C@@]1(C)O[C@@H]21 [JVM 2-50]
Percent Growth (SNB-75; Log10 Concentration −4.0): −20% | Percent Growth (SNB-75; Log10 Concentration −5.0): 68% | Percent Growth (SNB-75; Log10 Concentration −6.0): 79% | Percent Growth (SNB-75; Log10 Concentration −7.0): 79% | Percent Growth (SNB-75; Log10 Concentration −8.0): 70% | GI50 (SNB-75; NCI five dose): 16 µM | TGI (SNB-75; NCI five dose): 5.92E−5 | Percent Growth (HCC-2998; Log10 Concentration −4.0): −70% | Percent Growth (HCC-2998; Log10 Concentration −5.0): 105% | Percent Growth (HCC-2998; Log10 Concentration −6.0): 136% | Percent Growth (HCC-2998; Log10 Concentration −7.0): 106% | Percent Growth (HCC-2998; Log10 Concentration −8.0): 98% | GI50 (HCC-2998; NCI five dose): 20.6 µM | TGI (HCC-2998; NCI five dose): 3.99E−5 | Percent Growth (A498; Log10 Concentration −4.0): −25% | Percent Growth (A498; Log10 Concentration −5.0): 58% | Percent Growth (A498; Log10 Concentration −6.0): 60% | Percent Growth (A498; Log10 Concentration −7.0): 68% | Percent Growth (A498; Log10 Concentration −8.0): 74% | GI50 (A498; NCI five dose): 12.4 µM | TGI (A498; NCI five dose): 5.01E−5 | Percent Growth (SNB-19; Log10 Concentration −4.0): 19% | Percent Growth (SNB-19; Log10 Concentration −5.0): 84% | Percent Growth (SNB-19; Log10 Concentration −6.0): 95% | Percent Growth (SNB-19; Log10 Concentration −7.0): 93% | Percent Growth (SNB-19; Log10 Concentration −8.0): 99% | GI50 (SNB-19; NCI five dose): 32.6 µM | TGI (SNB-19; NCI five dose): >1.00E−4 | Percent Growth (HS 578T; Log10 Concentration −4.0): 22% | Percent Growth (HS 578T; Log10 Concentration −5.0): 82% | Percent Growth (HS 578T; Log10 Concentration −6.0): 91% | Percent Growth (HS 578T; Log10 Concentration −7.0): 88% | Percent Growth (HS 578T; Log10 Concentration −8.0): 92% | GI50 (HS 578T; NCI five dose): 34.3 µM | TGI (HS 578T; NCI five dose): >1.00E−4 | Percent Growth (MOLT-4; Log10 Concentration −4.0): −39% | Percent Growth (MOLT-4; Log10 Concentration −5.0): 43% | Percent Growth (MOLT-4; Log10 Concentration −6.0): 103% | Percent Growth (MOLT-4; Log10 Concentration −7.0): 114% | Percent Growth (MOLT-4; Log10 Concentration −8.0): 106% | GI50 (MOLT-4; NCI five dose): 7.65 µM | Percent Growth (CAKI-1; Log10 Concentration −4.0): −65% | Percent Growth (CAKI-1; Log10 Concentration −5.0): 48% | Percent Growth (CAKI-1; Log10 Concentration −6.0): 87% | Percent Growth (CAKI-1; Log10 Concentration −7.0): 91% | Percent Growth (CAKI-1; Log10 Concentration −8.0): 89% | GI50 (CAKI-1; NCI five dose): 8.99 µM | TGI (CAKI-1; NCI five dose): 2.67E−5 | Percent Growth (MCF7; Log10 Concentration −4.0): −59% | Percent Growth (MCF7; Log10 Concentration −5.0): 16% | Percent Growth (MCF7; Log10 Concentration −6.0): 84% | Percent Growth (MCF7; Log10 Concentration −7.0): 89% | Percent Growth (MCF7; Log10 Concentration −8.0): 87% | GI50 (MCF7; NCI five dose): 3.16 µM | TGI (MCF7; NCI five dose): 1.61E−5 | Percent Growth (786-0; Log10 Concentration −4.0): −74% | Percent Growth (786-0; Log10 Concentration −5.0): 59% | Percent Growth (786-0; Log10 Concentration −6.0): 97% | Percent Growth (786-0; Log10 Concentration −7.0): 97% | Percent Growth (786-0; Log10 Concentration −8.0): 91% | GI50 (786-0; NCI five dose): 11.7 µM | TGI (786-0; NCI five dose): 2.78E−5 | Percent Growth (TK-10; Log10 Concentration −4.0): −91% | Percent Growth (TK-10; Log10 Concentration −5.0): 55% | Percent Growth (TK-10; Log10 Concentration −6.0): 110% | Percent Growth (TK-10; Log10 Concentration −7.0): 103% | Percent Growth (TK-10; Log10 Concentration −8.0): 100% | GI50 (TK-10; NCI five dose): 10.8 µM | Percent Growth (NCI/ADR-RES; Log10 Concentration −4.0): 16% | Percent Growth (NCI/ADR-RES; Log10 Concentration −5.0): 105% | Percent Growth (NCI/ADR-RES; Log10 Concentration −6.0): 106% | Percent Growth (NCI/ADR-RES; Log10 Concentration −7.0): 113% | Percent Growth (NCI/ADR-RES; Log10 Concentration −8.0): 108% | GI50 (NCI/ADR-RES; NCI five dose): 41.5 µM | TGI (NCI/ADR-RES; NCI five dose): >1.00E−4 | Percent Growth (SW-620; Log10 Concentration −4.0): −71% | Percent Growth (SW-620; Log10 Concentration −5.0): 93% | Percent Growth (SW-620; Log10 Concentration −6.0): 101% | Percent Growth (SW-620; Log10 Concentration −7.0): 104% | Percent Growth (SW-620; Log10 Concentration −8.0): 102% | GI50 (SW-620; NCI five dose): 18.2 µM | TGI (SW-620; NCI five dose): 3.67E−5 | Percent Growth (SR; Log10 Concentration −4.0): −30% | Percent Growth (SR; Log10 Concentration −5.0): 18% | Percent Growth (SR; Log10 Concentration −6.0): 91% | Percent Growth (SR; Log10 Concentration −7.0): 100% | Percent Growth (SR; Log10 Concentration −8.0): 100% | GI50 (SR; NCI five dose): 3.67 µM | Percent Growth (SF-268; Log10 Concentration −4.0): −51% | Percent Growth (SF-268; Log10 Concentration −5.0): 90% | Percent Growth (SF-268; Log10 Concentration −6.0): 100% | Percent Growth (SF-268; Log10 Concentration −7.0): 99% | Percent Growth (SF-268; Log10 Concentration −8.0): 99% | GI50 (SF-268; NCI five dose): 19.3 µM | TGI (SF-268; NCI five dose): 4.38E−5 | Percent Growth (T-47D; Log10 Concentration −4.0): −54% | Percent Growth (T-47D; Log10 Concentration −5.0): 16% | Percent Growth (T-47D; Log10 Concentration −6.0): 69% | Percent Growth (T-47D; Log10 Concentration −7.0): 95% | Percent Growth (T-47D; Log10 Concentration −8.0): 89% | GI50 (T-47D; NCI five dose): 3.46 µM | TGI (T-47D; NCI five dose): 1.71E−5 | Percent Growth (UO-31; Log10 Concentration −4.0): −65% | Percent Growth (UO-31; Log10 Concentration −5.0): 67% | Percent Growth (UO-31; Log10 Concentration −6.0): 96% | Percent Growth (UO-31; Log10 Concentration −7.0): 99% | Percent Growth (UO-31; Log10 Concentration −8.0): 95% | GI50 (UO-31; NCI five dose): 13.5 µM | TGI (UO-31; NCI five dose): 3.23E−5 | Percent Growth (MDA-MB-468; Log10 Concentration −4.0): −67% | Percent Growth (MDA-MB-468; Log10 Concentration −5.0): −12% | Percent Growth (MDA-MB-468; Log10 Concentration −6.0): 67% | Percent Growth (MDA-MB-468; Log10 Concentration −7.0): 91% | Percent Growth (MDA-MB-468; Log10 Concentration −8.0): 98% | GI50 (MDA-MB-468; NCI five dose): 1.64 µM | TGI (MDA-MB-468; NCI five dose): 7.01E−6 | Percent Growth (IGROV1; Log10 Concentration −4.0): −36% | Percent Growth (IGROV1; Log10 Concentration −5.0): 49% | Percent Growth (IGROV1; Log10 Concentration −6.0): 109% | Percent Growth (IGROV1; Log10 Concentration −7.0): 106% | Percent Growth (IGROV1; Log10 Concentration −8.0): 95% | GI50 (IGROV1; NCI five dose): 9.79 µM | TGI (IGROV1; NCI five dose): 1.80E−5 | Percent Growth (HCT-116; Log10 Concentration −4.0): −75% | Percent Growth (HCT-116; Log10 Concentration −5.0): 15% | Percent Growth (HCT-116; Log10 Concentration −6.0): 90% | Percent Growth (HCT-116; Log10 Concentration −7.0): 96% | Percent Growth (HCT-116; Log10 Concentration −8.0): 93% | GI50 (HCT-116; NCI five dose): 3.43 µM | TGI (HCT-116; NCI five dose): 1.48E−5 | CC50 (HCT-116; read-out: LC50, NCI five dose): 53.2 µM
